For the assay, the target named is CDK7/Cyclin H/MNAT1 (Homo sapiens, UniProt P50613). Description: Inhibition of Kinase Activity: Compounds of the invention were assayed for activity against a variety of different kinases. The class given is protein-complex assay.

This is an account of results in ChEMBL document CHEMBL5728191, “Inhibitors of cyclin-dependent kinase 7 (CDK7)” (2020).

By IC50 is commonly meant the midpoint of a concentration-inhibition curve.

Molecules are shown by their SMILES.

Chain of CDK7/Cyclin H/MNAT1 (P51946 whole entry): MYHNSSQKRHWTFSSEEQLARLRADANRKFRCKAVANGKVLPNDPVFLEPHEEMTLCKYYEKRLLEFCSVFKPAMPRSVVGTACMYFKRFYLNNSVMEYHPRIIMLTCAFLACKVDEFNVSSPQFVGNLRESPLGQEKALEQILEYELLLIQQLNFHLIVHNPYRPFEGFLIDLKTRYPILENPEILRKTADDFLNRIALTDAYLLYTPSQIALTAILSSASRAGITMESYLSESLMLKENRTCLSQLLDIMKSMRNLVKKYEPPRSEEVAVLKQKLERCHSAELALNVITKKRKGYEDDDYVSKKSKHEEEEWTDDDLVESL
Chain of CDK7/Cyclin H/MNAT1 (P50613 whole entry): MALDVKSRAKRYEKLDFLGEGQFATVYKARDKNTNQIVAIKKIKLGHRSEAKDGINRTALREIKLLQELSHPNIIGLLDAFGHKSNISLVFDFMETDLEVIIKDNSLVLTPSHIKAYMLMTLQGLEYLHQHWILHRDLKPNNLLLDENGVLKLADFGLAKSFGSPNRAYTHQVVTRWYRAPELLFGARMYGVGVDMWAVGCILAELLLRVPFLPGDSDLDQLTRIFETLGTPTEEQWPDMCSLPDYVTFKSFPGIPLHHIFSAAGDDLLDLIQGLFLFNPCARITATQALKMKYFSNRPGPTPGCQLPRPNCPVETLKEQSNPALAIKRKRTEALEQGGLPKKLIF
Chain of CDK7/Cyclin H/MNAT1 (P51948 whole entry, further chain): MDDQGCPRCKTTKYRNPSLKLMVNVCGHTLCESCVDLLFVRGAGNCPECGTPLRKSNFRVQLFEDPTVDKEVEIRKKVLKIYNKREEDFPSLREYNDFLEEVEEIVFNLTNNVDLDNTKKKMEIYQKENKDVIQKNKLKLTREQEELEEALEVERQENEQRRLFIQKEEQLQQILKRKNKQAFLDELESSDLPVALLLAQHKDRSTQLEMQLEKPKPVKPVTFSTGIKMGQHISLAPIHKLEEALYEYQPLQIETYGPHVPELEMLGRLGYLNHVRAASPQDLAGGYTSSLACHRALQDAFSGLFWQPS

Take `C=CC(=O)Nc1ccc(C(=O)Nc2nn(C)c3c2CN(C(=O)NC(C)CN(C)C)C3(C)C)cc1` (stereo unspecified): the half-inhibitory concentration (IC50) is over 500 nM.
